Laboratory results reported in US9994533B2, “Method of preparing ATG's analogue, and the application of ATG and it's analogue” (Longhua Hospital Shanghai University of Traditional Chinese …, priority 2016, dated 2018).

Key:
[1] = target: T1, Heterogeneous nuclear ribonucleoprotein H2 (Homo sapiens, UniProt P55795); assay: DARTS mass spectrometry of 293T lysate after ATG; assay type: binding; conditions: ATG 300 μM, pronase 1:1000, HNRH2_HUMAN
T1 construct: endogenous in cells; host or cells: 293T
T1 sequence (P55795 1-449): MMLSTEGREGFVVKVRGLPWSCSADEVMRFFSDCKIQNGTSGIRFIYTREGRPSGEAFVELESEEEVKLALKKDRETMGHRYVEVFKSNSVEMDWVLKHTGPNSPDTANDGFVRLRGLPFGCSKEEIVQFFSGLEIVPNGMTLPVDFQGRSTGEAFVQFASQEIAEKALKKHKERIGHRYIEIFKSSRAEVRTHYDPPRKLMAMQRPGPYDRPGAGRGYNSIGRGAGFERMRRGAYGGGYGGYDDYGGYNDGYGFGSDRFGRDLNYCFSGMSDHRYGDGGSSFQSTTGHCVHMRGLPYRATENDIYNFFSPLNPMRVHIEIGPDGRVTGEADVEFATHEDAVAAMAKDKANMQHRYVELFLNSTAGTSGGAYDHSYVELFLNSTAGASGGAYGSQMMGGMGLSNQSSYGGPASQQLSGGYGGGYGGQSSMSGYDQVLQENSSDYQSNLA
Method: (§1) 293T cells were digested with M-PER mammalian protein extraction buffer (78501 ThermoFisher) and phosphatase inhibitor (50 mM NaF, 10 mM β-glycerophosphate, 5 mM sodium pyrophosphate, 2 mM Na3VO4); and the protein concentration is determined by Bradford method (500-0006 Bio-rad). ATG was either added or not in the cell lysate. If added, the concentration of ATG was 300 μM. The cells were incubated at room temperature for 1 h. The cells were then lysed by incubating for 20 minutes at room temperature with different concentrations of pronase at 1:1000 (10165921001, Roche). The two groups of lysates are subjected to mass spectrometry and then compared.

[2] = target: T2, Keratin, type II cytoskeletal 5 (Homo sapiens, UniProt P13647); assay: DARTS mass spectrometry of 293T lysate after ATG; assay type: binding; conditions: ATG 300 μM, pronase 1:1000, K2C5_HUMAN
T2 construct: endogenous in cells; host or cells: 293T
T2 sequence (P13647 1-590): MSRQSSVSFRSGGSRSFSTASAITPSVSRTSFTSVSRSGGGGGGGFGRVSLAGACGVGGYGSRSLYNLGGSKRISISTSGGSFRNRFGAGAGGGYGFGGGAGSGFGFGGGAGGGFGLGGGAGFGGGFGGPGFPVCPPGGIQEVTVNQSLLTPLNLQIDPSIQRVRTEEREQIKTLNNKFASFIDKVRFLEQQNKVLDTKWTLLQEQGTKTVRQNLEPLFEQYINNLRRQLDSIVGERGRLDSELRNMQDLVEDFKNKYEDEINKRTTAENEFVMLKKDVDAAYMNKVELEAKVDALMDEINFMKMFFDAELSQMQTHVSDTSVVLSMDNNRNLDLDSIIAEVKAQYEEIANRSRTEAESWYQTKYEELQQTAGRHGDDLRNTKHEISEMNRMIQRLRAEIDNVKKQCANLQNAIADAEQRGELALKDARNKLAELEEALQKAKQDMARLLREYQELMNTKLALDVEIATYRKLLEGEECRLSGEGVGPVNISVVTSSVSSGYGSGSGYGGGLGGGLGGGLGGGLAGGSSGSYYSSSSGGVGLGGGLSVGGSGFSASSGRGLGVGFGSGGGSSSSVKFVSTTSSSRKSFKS
Method: as §1

[3] = target: T3, Keratin, type II cytoskeletal 6A (Homo sapiens, UniProt P02538); assay: DARTS mass spectrometry of 293T lysate after ATG; assay type: binding; conditions: ATG 300 μM, pronase 1:1000, K2C6A_HUMAN
T3 construct: endogenous in cells; host or cells: 293T
T3 sequence (P02538 2-564 limits assumed): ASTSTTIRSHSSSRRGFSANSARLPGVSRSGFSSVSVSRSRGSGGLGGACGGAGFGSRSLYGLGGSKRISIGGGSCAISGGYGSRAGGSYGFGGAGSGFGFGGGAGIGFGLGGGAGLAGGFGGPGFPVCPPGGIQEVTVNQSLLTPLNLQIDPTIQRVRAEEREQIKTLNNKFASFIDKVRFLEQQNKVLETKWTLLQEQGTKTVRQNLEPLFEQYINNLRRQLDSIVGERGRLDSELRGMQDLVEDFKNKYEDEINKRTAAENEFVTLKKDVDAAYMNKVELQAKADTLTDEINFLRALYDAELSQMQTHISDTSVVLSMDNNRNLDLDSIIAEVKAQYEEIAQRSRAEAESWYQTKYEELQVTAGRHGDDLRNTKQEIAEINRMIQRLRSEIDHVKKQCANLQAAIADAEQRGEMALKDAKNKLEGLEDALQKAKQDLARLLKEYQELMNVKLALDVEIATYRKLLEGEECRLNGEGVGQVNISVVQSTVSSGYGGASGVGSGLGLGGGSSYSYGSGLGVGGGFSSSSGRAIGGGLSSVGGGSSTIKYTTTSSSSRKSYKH
Method: as §1

[4] = target: T4, Protein transport protein Sec61 subunit alpha isoform 1 (Homo sapiens, UniProt P61619); assay: DARTS mass spectrometry of 293T lysate after ATG; assay type: binding; conditions: ATG 300 μM, pronase 1:1000, S61A1_HUMAN
T4 construct: endogenous in cells; host or cells: 293T
Method: as §1

PP2AB = target: T5, PP2AB (Homo sapiens, UniProt P62714); assay: DARTS-western blot of ATG binding to PP2A in 293T cells; conditions: ATG 100, 300, 1000 μM, pronase 1:1000, FIG. 1
T5 construct: endogenous in cells; host or cells: 293T
T5 sequence (P62714 whole entry): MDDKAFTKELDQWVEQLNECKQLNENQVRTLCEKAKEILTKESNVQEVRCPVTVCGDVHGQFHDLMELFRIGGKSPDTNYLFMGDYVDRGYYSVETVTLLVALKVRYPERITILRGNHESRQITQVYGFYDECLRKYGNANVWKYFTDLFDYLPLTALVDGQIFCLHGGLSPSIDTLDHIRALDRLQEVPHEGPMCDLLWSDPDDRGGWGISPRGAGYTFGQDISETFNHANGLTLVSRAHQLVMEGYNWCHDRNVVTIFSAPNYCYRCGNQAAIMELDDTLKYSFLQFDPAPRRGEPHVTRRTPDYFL
Method: We used ATG to stimulate 293T cells. […] The applied ATG was formulated at 3 different concentrations: 100 μM, 300 μM, 1000 μM. So there are 5 groups of Western Blot: blank group (without addition of pronase), DMSO (pronase 1:1000), ATG 100 μM (pronase 1:1000), ATG 300 μM (pronase 1:1000), ATG 1000 μM (Pronase 1:1000). […] While pronase can digest proteins, it digests more ATG-unbinding proteins than ATG-binding proteins. […] This method is called DARTS.
In FIG. 1: DARTS-western blot confirmed the binding of ATG to PP2AB; PP2A had three structural units, and ATG bound to the catalytic unit. The catalyst unit of the protein called PP2AB, the gene called PPP2CB.

Ratio (ATG/DMSO) [1]: 6.8 | Spectral Count (ATG) [1]: 12 | Ratio (ATG/DMSO) [2]: 4.7 | Spectral Count (ATG) [2]: 7 | Ratio (ATG/DMSO) [3]: 5.2 | Spectral Count (ATG) [3]: 8 | Ratio (ATG/DMSO) [4]: 4.7 | Spectral Count (ATG) [4]: 7
SMILES: COc1cc(C[C@H]2C(=O)OC[C@@H]2Cc2ccc(OC)c(OC)c2)ccc1O [ATG, Arctigenin]
PP2A binding (DARTS-western blot) (PP2AB): PP2A binding increased with the increasing concentration of ATG
